In publication PMC10251674, “Synthesis of novel mono- and bis-pyrazolylthiazole derivatives as anti-liver cancer agents through EGFR/HER2 target inhibition” (BMC Chemistry, 2023):
Like-named read-outs stand apart in the source and are kept apart here. One block for each compound: values may come before it.

What was measured:
[1] = test system: HepG2 liver cancer cells; test: MTT cytotoxicity assay against HepG2 cells; assay type: cell-based; details: for IC50 / viability at 100 µM: Homo sapiens; for viability at 100 µM: read-out: cell viability at the highest concentration
Experimental: (§1) HepG2 liver cancer cells and THLE2 normal liver cells were bought from the National Research Institute in Egypt and cultured in “RPMI-1640” media containing L-Glutamine (Lonza Verviers SPRL, Belgium, cat#12-604F). Fetal bovine serum (Sigma-Aldrich, MO, USA) and penicillin–streptomycin at a concentration of 10% and 1%, respectively, were added to both cell lines (Lonza, Belgium). All cells were incubated following routine tissue culture work. Cells were treated with the compounds at (0.01, 0.1, 1, 10, and 100 µM) concentrations. Cell viability was assessed after 48 h using MTT solution (Promega, USA). Finally, Absorbance was subsequently measured (at 570 nm) using ELISA microplate reader (BIO-RAD, model iMark, Japan). The percentage of cell viability was calculated, and IC50 values were recorded using the GraphPad prism 7, as previously reported in the literature.

[2] = test system: THLE2 normal liver cells; test: MTT cytotoxicity assay against THLE2 cells; assay type: cell-based; details: for IC50: Homo sapiens, THLE-2, MTT assay, 48 h, n = 3, read-out: IC50 ± SD THLE2
Experimental: as §1

[3] = molecular target: T1, EGFR kinase (Homo sapiens, UniProt P00533); test: EGFR kinase inhibitory assay (BPS Bioscience kit); assay type: biochemical; details: average of three replicates, five concentrations
T1 construct: purchased BPS Bioscience 40321
T1 sequence (P00533 25-1210): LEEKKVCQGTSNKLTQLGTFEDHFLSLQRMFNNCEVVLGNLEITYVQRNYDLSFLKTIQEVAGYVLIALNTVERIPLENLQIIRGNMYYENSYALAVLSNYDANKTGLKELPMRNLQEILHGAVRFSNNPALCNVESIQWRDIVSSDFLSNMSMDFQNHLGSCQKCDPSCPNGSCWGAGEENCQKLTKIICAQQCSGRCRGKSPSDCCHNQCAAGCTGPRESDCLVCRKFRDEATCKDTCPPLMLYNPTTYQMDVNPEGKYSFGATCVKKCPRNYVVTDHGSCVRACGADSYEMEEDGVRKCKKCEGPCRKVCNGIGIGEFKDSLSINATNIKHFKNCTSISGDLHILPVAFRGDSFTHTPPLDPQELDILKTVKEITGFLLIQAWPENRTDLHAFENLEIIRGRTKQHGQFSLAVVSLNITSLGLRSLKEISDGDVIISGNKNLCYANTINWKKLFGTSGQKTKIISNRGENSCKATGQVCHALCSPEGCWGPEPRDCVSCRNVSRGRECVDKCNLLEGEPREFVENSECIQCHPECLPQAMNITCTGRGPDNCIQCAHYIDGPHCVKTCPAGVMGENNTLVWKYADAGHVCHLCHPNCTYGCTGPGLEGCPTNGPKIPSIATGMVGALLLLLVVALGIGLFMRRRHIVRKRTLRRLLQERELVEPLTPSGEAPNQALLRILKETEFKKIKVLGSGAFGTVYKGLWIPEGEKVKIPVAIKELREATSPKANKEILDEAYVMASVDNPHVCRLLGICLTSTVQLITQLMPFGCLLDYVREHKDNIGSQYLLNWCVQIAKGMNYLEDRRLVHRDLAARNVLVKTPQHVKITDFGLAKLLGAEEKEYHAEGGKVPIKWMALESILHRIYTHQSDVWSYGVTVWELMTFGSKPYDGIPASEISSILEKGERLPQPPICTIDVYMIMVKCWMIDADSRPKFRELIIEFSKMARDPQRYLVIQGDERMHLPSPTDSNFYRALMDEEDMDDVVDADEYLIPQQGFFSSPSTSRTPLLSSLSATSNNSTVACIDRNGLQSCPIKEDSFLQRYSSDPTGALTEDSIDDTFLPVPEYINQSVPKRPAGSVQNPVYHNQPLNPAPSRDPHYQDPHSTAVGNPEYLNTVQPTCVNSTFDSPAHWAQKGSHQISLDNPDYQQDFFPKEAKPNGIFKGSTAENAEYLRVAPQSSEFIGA
Experimental: (§2) The autophosphorylation percentage inhibition of compounds was calculated by: 100-[Acontrol/Atreated-Control)] .

[4] = molecular target: T2, HER2 kinase (Homo sapiens, UniProt P04626); test: HER2 kinase inhibitory assay (BPS Bioscience kit); assay type: biochemical; details: average of three replicates, five concentrations
T2 construct: purchased BPS Bioscience 40721
T2 sequence (P04626 23-1255): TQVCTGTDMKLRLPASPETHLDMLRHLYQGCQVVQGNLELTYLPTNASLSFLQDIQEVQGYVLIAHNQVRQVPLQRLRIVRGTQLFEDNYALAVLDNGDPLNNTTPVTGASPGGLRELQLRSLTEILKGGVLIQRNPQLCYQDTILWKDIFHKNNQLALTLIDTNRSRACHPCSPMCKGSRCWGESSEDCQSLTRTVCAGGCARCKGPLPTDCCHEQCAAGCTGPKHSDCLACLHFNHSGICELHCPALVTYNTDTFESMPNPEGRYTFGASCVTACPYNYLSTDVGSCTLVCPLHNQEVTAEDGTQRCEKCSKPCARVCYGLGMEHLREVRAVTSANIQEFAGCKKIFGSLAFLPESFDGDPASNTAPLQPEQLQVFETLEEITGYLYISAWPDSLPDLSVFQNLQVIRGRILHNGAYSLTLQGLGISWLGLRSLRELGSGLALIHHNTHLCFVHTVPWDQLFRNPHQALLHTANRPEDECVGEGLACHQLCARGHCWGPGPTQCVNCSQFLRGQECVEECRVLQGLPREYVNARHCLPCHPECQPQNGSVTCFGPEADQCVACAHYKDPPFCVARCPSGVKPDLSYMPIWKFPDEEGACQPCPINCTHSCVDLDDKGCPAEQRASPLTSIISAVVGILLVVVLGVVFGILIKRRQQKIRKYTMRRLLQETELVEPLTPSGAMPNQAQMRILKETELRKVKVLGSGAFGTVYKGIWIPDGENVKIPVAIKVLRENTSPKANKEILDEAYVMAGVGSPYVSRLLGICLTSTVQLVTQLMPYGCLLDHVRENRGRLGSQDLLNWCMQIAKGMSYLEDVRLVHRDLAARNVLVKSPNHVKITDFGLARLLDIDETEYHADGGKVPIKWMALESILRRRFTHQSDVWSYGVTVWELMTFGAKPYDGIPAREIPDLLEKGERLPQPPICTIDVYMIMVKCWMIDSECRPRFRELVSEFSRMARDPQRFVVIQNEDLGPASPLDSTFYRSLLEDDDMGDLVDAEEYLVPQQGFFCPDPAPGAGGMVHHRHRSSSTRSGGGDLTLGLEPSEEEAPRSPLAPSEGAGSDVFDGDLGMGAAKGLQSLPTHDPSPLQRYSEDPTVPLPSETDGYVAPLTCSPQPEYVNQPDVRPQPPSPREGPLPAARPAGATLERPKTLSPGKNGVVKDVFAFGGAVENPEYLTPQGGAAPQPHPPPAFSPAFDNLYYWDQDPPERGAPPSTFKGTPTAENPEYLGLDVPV
Experimental: as §2

[5] = test system: HepG2 cells; test: Annexin V/PI staining, flow cytometry; assay type: cell-based; details: HepG2, treated at IC50, 48 h
Experimental: Overnight, 6-well culture plates were stocked with HepG2 cells (3–5 × 10^5 cells/well). […] After that, the cells and the medium supernatants were separated and washed with ice-cold PBS. The next step was suspending the cells in 100 µL of annexin binding buffer solution "25 mM CaCl2, 1.4 M NaCl, and 0.1 M Hepes/NaOH, pH 7.4″ and incubation with “Annexin V-FITC solution (1:100) and propidium iodide (PI)” at a concentration equals 10 µg/mL in the dark for 30 min. After the cells were stained, they were gathered by Cytoflex FACS equipment. We used cytExpert to examine the data.

[6] = test system: HepG2 cells; test: Cell cycle analysis by DNA flow cytometry; assay type: cell-based; details: HepG2, treated at IC50, 48 h
[7] = test system: P53; test: RT-PCR gene expression of P53; assay type: cell-based; details: HepG2, treated at IC50, 48 h, normalised to β-actin, control = 1
Experimental: (§3) Genes of P53, Bax, and Caspases-3,8,9 were screened as proapoptotic genes, while Bcl-2 was screened as antiapoptotic, therefore, we measured their gene expression to investigate the apoptotic process. […] After treatment, RT-PCR reaction was carried out following routine work. The Ct values were then used to determine the fold change in gene expression between samples after normalization to the β-actin reference gene.

[8] = test system: Bax; test: RT-PCR gene expression of Bax; assay type: cell-based; details: HepG2, treated at IC50, 48 h, normalised to β-actin, control = 1
Experimental: as §3

[9] = test system: caspase-3; test: RT-PCR gene expression of caspase-3; assay type: cell-based; details: HepG2, treated at IC50, 48 h, normalised to β-actin, control = 1
Experimental: as §3

[10] = test system: caspase-8; test: RT-PCR gene expression of caspase-8; assay type: cell-based; details: HepG2, treated at IC50, 48 h, normalised to β-actin, control = 1
Experimental: as §3

[11] = test system: caspase-9; test: RT-PCR gene expression of caspase-9; assay type: cell-based; details: HepG2, treated at IC50, 48 h, normalised to β-actin, control = 1
Experimental: as §3

[12] = test system: Bcl-2; test: RT-PCR gene expression of Bcl-2; assay type: cell-based; details: HepG2, treated at IC50, 48 h, normalised to β-actin, control = 1
Experimental: as §3

[13] = HepG2 cells, MTT assay, 48 h, n = 3, read-out: IC50 ± SD HepG2
[14] = HepG2, dose-response curve fit in Fig. 5
[15] = HepG2, dose-response curve fit in Fig. 5, read-out: IC50 (unit inferred)

SMILES: CS(=O)(=O)CCNCc1ccc(-c2ccc3ncnc(Nc4ccc(OCc5cccc(F)c5)c(Cl)c4)c3c2)o1 [Lapatinib, reference compound]
- IC50 [1, 13]: 7.45 ± 0.32 µM
- IC50 [2]: ≥ 50 µM

SMILES: COc1ccc(C=NNc2nc(-c3nn(-c4ccccc4)cc3C(=O)c3ccc4ccccc4c3)cs2)cc1 [Compound 8c, 2-(4-Methoxybenzylidenehydrazinyl)-4-(4-(2-naphthoyl)-1-phenyl-pyrazol-3-yl)thiazole]
- IC50 [1, 13]: 7.39 ± 0.29 µM
- IC50 [2]: ≥ 50 µM

SMILES: CC(=NNc1nc(-c2nn(-c3ccccc3)cc2C(=O)c2ccc3ccccc3c2)cs1)c1cc2ccccc2o1 [Compound 12, 2-(2-(1-(Benzofuran-2-yl)ethylidene)hydrazinyl)-4-(4-(2-naphthoyl)-1-phenylpyrazol-3-yl)thiazole]
- IC50 [1, 13]: 5.48 ± 0.66 µM
- IC50 [2]: ≥ 50 µM
- melting point: 164 to 166 °C

SMILES: CC(=NNc1nc(-c2nn(-c3ccccc3)cc2C(=O)c2ccc3ccccc3c2)cs1)c1nc2ccccc2s1 [Compound 13, 2-(2-(1-(Benzothiazol-2-yl)ethylidene)hydrazinyl)-4-(4-(2-naphthoyl)-1-phenylpyrazol-3-yl)-thiazole]
- IC50 [1, 13]: 5.16 ± 0.29 µM
- IC50 [2]: ≥ 50 µM
- melting point: 143 to 145 °C

SMILES: Cc1ccc(C=NNc2nc(-c3nn(-c4ccccc4)cc3C(=O)c3ccc4ccccc4c3)cs2)cc1 [Compound 8b, 2-(4-Methylbenzylidenehydrazinyl)-4-(4-(2-naphthoyl)-1-phenylpyrazol-3-yl)thiazole]
- IC50 [1, 13]: 8.16 ± 0.34 µM
- IC50 [2]: 41.6 ± 1.86 µM

SMILES: O=C(c1ccc2ccccc2c1)c1cn(-c2ccccc2)nc1C(=O)CBr [Compound 6, 3-Bromoacetyl-4-(2-naphthoyl)-1-phenyl-1H-pyrazole]
- IC50 [1, 13]: 16.3 ± 0.29 µM
- IC50 [2]: 34.5 ± 1.26 µM

SMILES: CC(=NNc1nc(-c2nn(-c3ccccc3)cc2C(=O)c2ccc3ccccc3c2)cs1)c1cc2ccccc2oc1=O [Compound 14, 2-(2-(1-(Coumarin-3-yl)ethylidene)hydrazinyl)-4-(4-(2-naphthoyl)-1-phenylpyrazol-3-yl)-thiazole]
- IC50 [1, 13]: 4.36 ± 0.38 µM
- IC50 [2]: 39.5 ± 1.74 µM
- melting point: 239 to 241 °C

The next lines start with results.

- melting point: 230 to 232 °C
SMILES: O=C(c1ccc2ccccc2c1)c1cn(-c2ccccc2)nc1-c1csc(N/N=C\c2ccccc2OCCCCOc2ccccc2/C=N\Nc2nc(-c3nn(-c4ccccc4)cc3C(=O)c3ccc4ccccc4c3)cs2)n1 [Compound 21c, 1,4-Bis(2-((2-(4-((2-naphthoyl)-1-phenyl-1H-pyrazol-3-yl)thiazol-2-yl)hydrazono)methyl)-phenoxy)butane]
- IC50 [1, 13]: 4.12 ± 0.19 µM
- IC50 [2]: 45.6 ± 1.87 µM

- melting point: 187 to 189 °C
SMILES: O=C(c1ccc2ccccc2c1)c1cn(-c2ccccc2)nc1-c1csc(N/N=C/c2ccc(OCCOc3ccc(/C=N/Nc4nc(-c5nn(-c6ccccc6)cc5C(=O)c5ccc6ccccc6c5)cs4)cc3)cc2)n1 [Compound 18a, 1,2-Bis(4-((2-(4-((2-naphthoyl)-1-phenyl-1H-pyrazol-3-yl)thiazol-2-yl)hydrazono)methyl)-phenoxy)ethane]
- IC50 [1, 13]: 8.34 ± 0.48 µM
- IC50 [2]: 39.8 ± 1.59 µM

- melting point: 138 to 140 °C
SMILES: O=C(c1ccc2ccccc2c1)c1cn(-c2ccccc2)nc1-c1csc(NN=Cc2ccccc2)n1 [Compound 8a, 2-(Benzylidenehydrazinyl)-4-(4-(2-naphthoyl)-1-phenyl-pyrazol-3-yl)thiazole]
- IC50 [1, 13]: 8.64 ± 0.29 µM
- IC50 [2]: 46.2 ± 2.01 µM

- melting point: 231 to 233 °C
SMILES: O=C(c1ccc2ccccc2c1)c1cn(-c2ccccc2)nc1-c1csc(NN=Cc2ccc([N+](=O)[O-])cc2)n1 [Compound 8d, 2-(4-Nitrobenzylidenehydrazinyl)-4-(4-(2-naphthoyl)-1-phenyl-pyrazol-3-yl)thiazole]
- IC50 [1, 13]: 11.3 ± 0.34 µM
- IC50 [2]: ≥ 50 µM

- IC50 [3]: 0.0058 µM
- IC50 [4]: 0.0142 µM
- melting point: 166 to 168 °C
SMILES: O=C(c1ccc2ccccc2c1)c1cn(-c2ccccc2)nc1-c1csc(N/N=C\c2ccccc2OCCOc2ccccc2/C=N\Nc2nc(-c3nn(-c4ccccc4)cc3C(=O)c3ccc4ccccc4c3)cs2)n1 [Compound 21a, 1,2-Bis(2-((2-(4-((2-naphthoyl)-1-phenyl-1H-pyrazol-3-yl)thiazol-2-yl)hydrazono)methyl)-phenoxy)ethane]
- LogIC50 [1, 14]: 0.514
- IC50 [1, 15]: 3.27 µM
- viability at 100 µM ([1]; HepG2 cells): 13%
- IC50 [1, 13]: 3.26 ± 0.14 µM
- cytotoxicity against THLE2 cells (in words) [2]: safe (non-cytotoxic)
- IC50 [2]: ≥ 50 µM

- IC50 [3]: 0.00498 µM
- IC50 [4]: 0.00985 µM
SMILES: O=C(c1ccc2ccccc2c1)c1cn(-c2ccccc2)nc1-c1csc(N/N=C/c2ccc(OCCCCOc3ccc(/C=N/Nc4nc(-c5nn(-c6ccccc6)cc5C(=O)c5ccc6ccccc6c5)cs4)cc3)cc2)n1 [Compound 18c, 1,4-Bis(4-((2-(4-((2-naphthoyl)-1-phenyl-1H-pyrazol-3-yl)thiazol-2-yl)hydrazono)methyl)-phenoxy)butane]
- LogIC50 [1, 14]: -0.01146
- enhancement in anti-cancer potency on doubling the pharmacophoric scaffold ([1]; HepG2 IC50 of 18c vs. 8c): about eightfold
- IC50 [1, 15]: 0.974 µM
- viability at 100 µM ([1]; HepG2 cells): 5%
- IC50 [1, 13]: 0.97 ± 0.09 µM
- cytotoxicity against THLE2 cells (in words) [2]: safe (non-cytotoxic)
- IC50 [2]: ≥ 50 µM
- increase of death rate (apoptotic cell death) ([5]; vs. untreated control): 63.6 fold
- late apoptosis ([5]; AV+/PI+): 26.07%
- early apoptosis ([5]; AV+/PI-): 15.28%
- total apoptosis ([5]; untreated control 0.65%): 41.35%
- cell cycle phase at which proliferation is arrested [6]: S-phase
- cell population at S-phase ([6]; control 37.8%): 50.5%
- P53 gene expression fold change [7]: 8.6 fold
- Bax gene expression fold change [8]: 8.9 fold
- caspase-3 gene expression fold change [9]: 9 fold
- caspase-8 gene expression fold change [10]: 2.3 fold
- caspase-9 gene expression fold change [11]: 7.6 fold
- Bcl-2 gene expression fold change [12]: 0.34 fold

- IC50 [3]: 0.00704 µM
- IC50 [4]: 0.0163 µM
- melting point: 200 to 202 °C
SMILES: O=C(c1ccc2ccccc2c1)c1cn(-c2ccccc2)nc1-c1csc(N/N=C/c2ccc(OCCCOc3ccc(/C=N/Nc4nc(-c5nn(-c6ccccc6)cc5C(=O)c5ccc6ccccc6c5)cs4)cc3)cc2)n1 [Compound 18b, 1,3-Bis(4-((2-(4-((2-naphthoyl)-1-phenyl-1H-pyrazol-3-yl)thiazol-2-yl)hydrazono)methyl)-phenoxy)propane]
- LogIC50 [1, 14]: 0.5536
- IC50 [1, 15]: 3.58 µM
- viability at 100 µM ([1]; HepG2 cells): 9%
- IC50 [1, 13]: 3.57 ± 0.67 µM
- cytotoxicity against THLE2 cells (in words) [2]: safe (non-cytotoxic)
- IC50 [2]: ≥ 50 µM

- melting point: 209 to 211 °C
SMILES: O=C(c1ccc2ccccc2c1)c1cn(-c2ccccc2)nc1-c1csc(N/N=C\c2ccccc2OCCCOc2ccccc2/C=N\Nc2nc(-c3nn(-c4ccccc4)cc3C(=O)c3ccc4ccccc4c3)cs2)n1 [Compound 21b, 1,3-Bis(2-((2-(4-((2-naphthoyl)-1-phenyl-1H-pyrazol-3-yl)thiazol-2-yl)hydrazono)methyl)-phenoxy)propane]
- IC50 [1, 13]: 9.36 ± 0.47 µM
- IC50 [2]: 49.4 ± 2.1 µM
